Source: patent US10512607B2, “Polymeric particles, method for cytosolic delivery of cargo, methods of making the particles” (University of Florida Research Foundation, Inc., priority 2015, dated 2019)

Experiments:
[1] = system: Chinese hamster ovary (CHO-K1) cells; test: CytoTox96 LDH cytotoxicity assay; format: cell-based; conditions: positive control for toxicity
Description: Chinese hamster ovary (CHO-K1) cells were grown in Ham's F12 medium (Mediatech) containing 10% fetal bovine serum (FBS, Hyclone), penicillin (100 units/mL), and streptomycin (100 μg/mL) at 37° C. in a humidified incubator with 5% CO2 [30]. Cell viability was determined via Trypan blue exclusion and was 97% with each passage.
Toxicity of MPs was determined employing CytoTox96 Non-radioactive Cytotoxity Assay (Promega). CHO cells were plated at a density of 10,000 cells per well in a 96 well tissue culture plate in 200 μL of cell culture medium. Cells were maintained at 37° C. in a humidified incubator in a 5% CO2 atmosphere. MPs were added at a ratio of 5, 10, 20, 30, 40, and 50 particles/cell and incubated at 37° C. for 24 h. The culture medium was transferred into wells of a clear bottom 96 well plate. Cells treated with 0.1% Triton X-100 were used as a positive control for 100% toxicity and cell culture medium alone was used for background subtraction for baseline lactate dehydrogenase (LDH) activity (background control). The cell supernatants were incubated with the developing reagents for 30 min per the manufacturer's instructions. The optical density of the developed color was determined by measuring absorbance at 490 nm. […]

[2] = system: dendritic cells (DCs); test: Calcein release from endosomal vesicles in dendritic cells; format: cell-based, mouse; conditions: 2 h at 37° C.
Description: DCs were isolated from mouse bone marrow tissues as previously described in Lewis et al. according to the guidelines set forth by the University of Florida Institutional Animal Care and Use Committee.
DCs were plated in 35 mm glass bottom culture dishes at a density of 5×10^4 cells in DC culture medium [DMEM:F12 1:1 (GE Healthcare Life Sciences), 10% fetal bovine serum, 1 mM sodium pyruvate, nonessential amino acids, penicillin-streptomycin, and 20 ng/mL GM-CSF (R&D systems)]. […] As a positive control, a portion of DCs were treated with the membrane permeable Acetoxymethyl ester of calcein (5 μM). Following treatment, cells were washed four times with phosphate buffered saline. New culture medium was added and the cells were imaged with a fluorescent microscope (Axiovert 200M microscope (Carl Zeiss, Oberkochen, Germany) using excitation/emission wavelengths of 495/515 nm at 200-fold magnification.
Images were analyzed by measuring the area of fluorescence per channel (green vs bright field). The values are reported as % relative fluorescence intensity per cell (RFI/cell).

Row | Compound | LDH release relative to basal background LDH activity in media without cells [1] | cytosolic distribution of calcein (fluorescent area over cell area) [2]
1 | Triton X-100 | 21 fold | 
2 | Acetoxymethyl ester of calcein [calcein AM] |  | ~95%
3 | O=C(O)CN(CC(=O)O)Cc1cc2c(cc1O)Oc1cc(O)c(CN(CC(=O)O)CC(=O)O)cc1C21OC(=O)c2ccccc21 [calcein alone] |  | less than 10%
